Experimental data published in article PMC12692346, “Imidazolinium-Based NHC–Metal Complexes Overcome Both Cancer Multidrug Resistance and Cisplatin Resistance In Vitro” (International Journal of Molecular Sciences, 2025).

How the values were obtained:
[1] = tested on: Mes-Sa mCherry uterine sarcoma cell line; assay: Triple coculture fluorescence cytotoxicity test, parental line; assay type: cell-based, human; settings: 144 h incubation, fluorescence readout
Procedure: (§1) All synthesized complexes and representatives of the respective ligands (Lb, Lc, SIPr, IPr) were tested in a triple coculture of uterine sarcoma cell lines, consisting of the parental Mes-Sa cell line, and its MDR derivatives Mes-Sa/B1 and Mes-Sa/Dx5, transfected or selected in doxorubicin to overexpress P-glycoprotein, respectively (Figure 2a–c, Table S2). Each cell line expresses a distinct fluorescent protein (mCherry, mOrange, and eGFP, respectively), and the total fluorescence of a well is proportional to the cell number, allowing the assessment of compound cytotoxicity.
(§2) In a triple coculture system, cell lines expressing different fluorescent proteins were seeded in the same well. Cell lines (Mes-Sa mCherry, Mes-Sa/B1 mOrange, Mes-Sa/Dx5 eGFP [25]) were admixed and seeded on 384-well plates at a density of 3 × 800 cells/well (1:1:1 ratio), resulting in an overall total of 2400 cells. The next day, serially diluted compounds were added to the wells. Liquid handling was managed by a Hamilton StarLet pipetting robot. After 144 h of incubation, the fluorescence of mCherry (ex/em: 585/610 nm), mOrange (ex/em: 545/567 nm) and eGFP (ex/em: 485/510 nm) was recorded with an EnSpire plate reader (PerkinElmer, Waltham, MA, USA).
(§3) pIC50 values derived from both co- and monoculture systems were determined by a custom program written in C# [25], then average and standard deviations were calculated and transformed to IC50 values. Every compound was tested in at least 3 independent experiments in triplicates.

Mes-Sa/B1 mOrange = assay: Triple coculture fluorescence cytotoxicity test, ABCB1-transfected MDR line; assay type: cell-based, human; settings: for RR_B1 resistance ratio (IC50_MDR line / IC50_parental line) of Mes-Sa/B1: Mes-Sa/B1 vs Mes-Sa; for IC50: triple coculture, 144 h incubation, fluorescence readout
Procedure: as §1, §2, §3

Mes-Sa/Dx5 eGFP = assay: Triple coculture fluorescence cytotoxicity test, doxorubicin-selected MDR line; assay type: cell-based, human; settings: for RR_Dx5 resistance ratio (IC50_MDR line / IC50_parental line) of Mes-Sa/Dx5: Mes-Sa/Dx5 vs Mes-Sa; for IC50: triple coculture, 144 h incubation, fluorescence readout
Procedure: as §1, §2, §3

[2] = tested on: CST murine breast cancer cell line; assay: Monoculture PrestoBlue cytotoxicity test, CST; assay type: cell-based, mouse; settings: 120 h exposure
Procedure: (§4) CST, a drug-naïve murine breast cancer cell line, and cisplatin-resistant cells CST-2/3 were seeded in monoculture into 384-well plates (Corning Inc., Corning, NY, USA) at a density of 2500 cells per well using automated liquid-handling. The cells were preincubated for 24 h to ensure adherence, followed by the addition of serially diluted compounds to a final well volume of 60 µL. Following 120 h of continuous drug exposure, cell viability was quantified using the PrestoBlue viability assay (Thermo Fisher Scientific, Waltham, MA, USA) after 1 h incubation at 555 nm excitation and 585 nm emission wavelengths.
as §3

[3] = tested on: CST-2/3 cisplatin-resistant cells; assay: Monoculture PrestoBlue cytotoxicity test, cisplatin-resistant CST-2/3; assay type: cell-based, mouse; settings: for RR_CST resistance ratio (IC50_CST-2/3 / IC50_CST): CST-2/3 vs CST; for IC50: monoculture, 120 h exposure, PrestoBlue
Procedure: as §4, §3

[4] = tested on: MSCL-1 mesenchymal stem cell-like cell line; assay: PrestoBlue cytotoxicity test, non-malignant MSCL-1; assay type: cell-based, human; settings: for IC50: 72 h treatment, PrestoBlue; for MSCL-1 / CST ratio (IC50_MSCL-1/IC50_cancer line): MSCL-1 vs CST; for MSCL-1 / Mes-Sa ratio (IC50_MSCL-1/IC50_cancer line): MSCL-1 vs Mes-Sa
Procedure: The MSCL-1 line was seeded on 96-well plates with 15,000 cells/well density, and the following day, it was treated with the compounds for 72 h, when cell viability was assessed using a PrestoBlue viability assay.
as §3

Mes-Sa cells = assay: H2DCFDA intracellular ROS assay in Mes-Sa; assay type: cell-based, human; settings: 25 µM, 4 h incubation; for increase in intracellular ROS: vs 0 h
Procedure: (§5) Intracellular ROS production was assessed by the H2DCFDA—Cellular ROS Assay Kit (ab113851, Abcam, Cambridge, UK) according to the manufacturer’s instructions. Briefly, 20,000 cells (Mes-Sa and CST) were seeded on 96-well plates 1 day prior to the experiment. The cells were washed and incubated with H2DCFDA solution for 45 min in the dark. Following an additional washing step, test compounds were added in complete, phenol red free medium (FluoroBrite™, Thermo Fisher Scientific), at a final concentration of 25 µM. Fluorescence of 2′,7′-dichlorofluorescein (DCF) was measured at 484 nm/535 nm excitation/emission wavelengths. Data were normalized to baseline (0 h) values and represent at least three independent experiments.

CST cells = assay: H2DCFDA intracellular ROS assay in CST; assay type: cell-based, mouse; settings: 25 µM, 4 h incubation; for increase in intracellular ROS: vs 0 h
Procedure: as §5

| Compound | IC50 [1] | RR_B1 resistance ratio (IC50_MDR line / IC50_parental line) of Mes-Sa/B1 (Mes-Sa/B1 mOrange) | IC50 (Mes-Sa/B1 mOrange) | RR_Dx5 resistance ratio (IC50_MDR line / IC50_parental line) of Mes-Sa/Dx5 (Mes-Sa/Dx5 eGFP) | IC50 (Mes-Sa/Dx5 eGFP) | IC50 [2] | RR_CST resistance ratio (IC50_CST-2/3 / IC50_CST) [3] | IC50 [3] | IC50 [4] | MSCL-1 / CST ratio (IC50_MSCL-1/IC50_cancer line) [4] | MSCL-1 / Mes-Sa ratio (IC50_MSCL-1/IC50_cancer line) [4] | increase in intracellular ROS (CST cells) | intracellular ROS induction compared to serum-containing medium (in words) (Mes-Sa cells) | intracellular ROS induction compared to untreated control (in words) (CST cells) | further results |
| --- | --- | --- | --- | --- | --- | --- | --- | --- | --- | --- | --- | --- | --- | --- | --- |
| N.N.[Cl][Pt][Cl] [Cisplatin] | 2520 nM | 0.8 | 2130 nM | 2.3 | 5910 nM | 150 nM | 5.5 | 820 nM | 17000 nM | 113.6 | 6.8 | – | – | – | – |
| CC(C)c1cccc(C(C)C)c1N1CCN(c2c(C(C)C)cccc2C(C)C)[C]1=[Cu][Cl] [Compound 5a] | 420 nM | 1.0 | 440 nM | 1.0 | 430 nM | 180 nM | 1.5 | 270 nM | 1150 nM | 6.5 | 2.7 | 88% | – | – | increase in intracellular ROS (Mes-Sa cells): 72% |
| CC(C)c1cccc(C(C)C)c1N1CCN(c2c(C(C)C)cccc2C(C)C)[C]1=[Ag][Cl] [Compound 6a] | 610 nM | 1.6 | 980 nM | 1.5 | 890 nM | 530 nM | 1.7 | 880 nM | 1240 nM | 2.3 | 2.0 | 107% | did not significantly induce | – | – |
| CC(C)c1cccc(C(C)C)c1N1CCN(c2c(C(C)C)cccc2C(C)C)[C]1=[Au][Cl] [Compound 7a] | 8450 nM | 1.7 | 14400 nM | 2.2 | 18500 nM | 12200 nM | 1.0 | 12600 nM | 25700 nM | 2.1 | 3.0 | – | did not significantly induce | No significant ROS induction | – |
| C=C[CH2][Pd]([Cl])=[C]1N(c2c(C(C)C)cccc2C(C)C)CCN1c1c(C(C)C)cccc1C(C)C [Compound 8a] | 2680 nM | 2.0 | 5250 nM | 2.2 | 5960 nM | 1520 nM | 1.3 | 2000 nM | 2980 nM | 2.0 | 1.1 | – | – | – | – |
| CC(C)c1cccc(C(C)C)c1N1CCN(c2c(C(C)C)cccc2C(C)C)[C]1=[Cu+]=[C]1N(c2c(C(C)C)cccc2C(C)C)CCN1c1c(C(C)C)cccc1C(C)C.F[B-](F)(F)F [Compound 9a] | 72 nM | 11.6 | 840 nM | 14.3 | 1040 nM | 110 nM | 2.2 | 240 nM | 810 nM | 7.3 | 11.2 | 61% | – | – | increase in intracellular ROS (Mes-Sa cells): 99% |
| CC(C)c1cccc(C(C)C)c1N1CCN(c2c(C(C)C)cccc2C(C)C)[C]1=[Ag+]=[C]1N(c2c(C(C)C)cccc2C(C)C)CCN1c1c(C(C)C)cccc1C(C)C.F[B-](F)(F)F [Compound 10a] | 36 nM | 79.5 | 2840 nM | 162.2 | 5790 nM | 92 nM | 2.4 | 218 nM | 560 nM | 6.1 | 15.7 | – | did not significantly induce | No significant ROS induction | – |
| CC(C)c1cccc(C(C)C)c1N1C=[N+]([C@@H](C)c2ccccc2)C[C@@H]1C(C)(C)C [Lb] | – | 22.7 | – | 26.1 | – | – | 2.0 | – | – | – | – | – | – | – | IC50 ([1]; Homo sapiens, MES-SA): 1830 nM; IC50 (Mes-Sa/B1 mOrange; Homo sapiens, MES-SA): 41700 nM; IC50 (Mes-Sa/Dx5 eGFP; Homo sapiens, MES-SA/Dx5): 47900 nM; IC50 ([2]; Mus musculus): 4950 nM; IC50 ([3]; Mus musculus): 9690 nM |
| CC(C)c1cccc(C(C)C)c1N1C=[N+](c2c(C(C)C)cccc2C(C)C)CC1 [SIPr, reference compound] | – | 10.9 | – | 20.9 | – | – | 3.4 | – | – | 2.0 | 2.3 | – | did not significantly induce | No significant ROS induction | IC50 ([1]; Homo sapiens, MES-SA): 5050 nM; IC50 (Mes-Sa/B1 mOrange; Homo sapiens, MES-SA): 55000 nM; IC50 (Mes-Sa/Dx5 eGFP; Homo sapiens, MES-SA/Dx5): 106000 nM; IC50 ([2]; Mus musculus): 5920 nM; IC50 ([3]; Mus musculus): 20300 nM; IC50 ([4]; Homo sapiens): 11700 nM |
